In PubChem BioAssay AID330 (DTP/NCI, 2004):
Several values for one entry are separate records, joined by “and”; a condition that tells them apart may be missing. Identical values can stand only once. Toxic doses and inconclusive results are not listed. Peptide text beside a SMILES is read from it. * marks the point of attachment. Cbz = O=C(OCc1ccccc1)*

Test system: P388 leukemia ip, CD2F1 mice, survival T/C
Test: NCI In Vivo Anticancer Drug Screen. Data for tumor model P388 Leukemia (intraperitoneal) in CD2F1 (CDF1) mice
Conditions: endpoint: median survival time, higher = longer survival
Method in brief: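 Mice carrying the transplanted tumor received test compound or vehicle. Survival was recorded in each group, and the value is the treated-group measurement divided by that of the vehicle-treated control group.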

[1] = dose: 50.0 mg/kg/injection, schedule: Q01DX005 (ip), vehicle: Klucel (hydroxypropylcellulose) (HPC)
[2] = dose: 100.0 mg/kg/injection, schedule: Q01DX005 (ip), vehicle: Klucel (hydroxypropylcellulose) (HPC)
[3] = dose: 200.0 mg/kg/injection, schedule: Q01DX005 (ip), vehicle: Klucel (hydroxypropylcellulose) (HPC)
[4] = dose: 50.0 mg/kg/injection, schedule: Q01DX005 (ip), vehicle: saline with Tween-80
[5] = dose: 100.0 mg/kg/injection, schedule: Q01DX005 (ip), vehicle: saline with Tween-80
[6] = dose: 200.0 mg/kg/injection, schedule: Q01DX005 (ip), vehicle: saline with Tween-80
[7] = dose: 100.0 mg/kg/injection, schedule: Q01DX009 (ip), vehicle: saline with Tween-80
[8] = dose: 60.0 mg/kg/injection, schedule: Q01DX005 (ip), vehicle: saline with Tween-80
[9] = dose: 120.0 mg/kg/injection, schedule: Q01DX005 (ip), vehicle: saline with Tween-80
[10] = dose: 50.0 mg/kg/injection, schedule: Q01DX009 (ip), vehicle: saline with Tween-80
[11] = dose: 200.0 mg/kg/injection, schedule: Q01DX009 (ip), vehicle: saline with Tween-80

CCOC(=O)C(NC(N)=O)C(=O)OCC
T/C (dose: 25.0 mg/kg/injection, schedule: Q01DX009 (ip), vehicle: water): 89 % of control | T/C (dose: 50.0 mg/kg/injection, schedule: Q01DX009 (ip), vehicle: water): 99 % of control | T/C (dose: 100.0 mg/kg/injection, schedule: Q01DX009 (ip), vehicle: water): 100 % of control | T/C (dose: 200.0 mg/kg/injection, schedule: Q01DX009 (ip), vehicle: water): 105 % of control | T/C (dose: 400.0 mg/kg/injection, schedule: Q01DX009 (ip), vehicle: water): 91 % of control

CN=C(c1ccc(NC(=O)c2cc(C(=O)Nc3ccc(C(=NC)N(C)C)cc3)cc([N+](=O)[O-])c2)cc1)N(C)C
T/C (dose: 6.25 mg/kg/injection, schedule: Q01DX005 (ip), vehicle: saline): 101 % of control | T/C (dose: 12.5 mg/kg/injection, schedule: Q01DX005 (ip), vehicle: saline): 98 % of control

COc1cc2c(c3c1OCO3)-c1ccc(OC)c(=O)cc1C(NC(C)=O)CC2 (stereo not drawn)
T/C (dose: 1.25 mg/kg/injection, schedule: Q01DX009 (ip), vehicle: Klucel (hydroxypropylcellulose) (HPC)): 108 % of control | T/C (dose: 2.5 mg/kg/injection, schedule: Q01DX009 (ip), vehicle: Klucel (hydroxypropylcellulose) (HPC)): 104 % of control | T/C (dose: 5.0 mg/kg/injection, schedule: Q01DX009 (ip), vehicle: Klucel (hydroxypropylcellulose) (HPC)): 111 % of control | T/C (dose: 10.0 mg/kg/injection, schedule: Q01DX009 (ip), vehicle: Klucel (hydroxypropylcellulose) (HPC)): 116 % of control | T/C (dose: 20.0 mg/kg/injection, schedule: Q01DX009 (ip), vehicle: Klucel (hydroxypropylcellulose) (HPC)): 118 % of control

CCN1CC2(OC(=O)c3ccccc3NC(C)=O)CCC(OC)C34C1C(CC23)C1(O)CC(OC)C2CC4C1(O)C2OC (stereo not drawn)
T/C (dose: 4.0 mg/kg/injection, schedule: Q01DX009 (ip), vehicle: Klucel (hydroxypropylcellulose) (HPC)): 92 % of control | T/C (dose: 8.0 mg/kg/injection, schedule: Q01DX009 (ip), vehicle: Klucel (hydroxypropylcellulose) (HPC)): 94 % of control | T/C (dose: 16.0 mg/kg/injection, schedule: Q01DX009 (ip), vehicle: Klucel (hydroxypropylcellulose) (HPC)): 97 % of control | T/C (dose: 32.0 mg/kg/injection, schedule: Q01DX009 (ip), vehicle: Klucel (hydroxypropylcellulose) (HPC)): 91 % of control

O=C(NC(Cc1cnc[nH]1)C(=O)NC(Cc1ccc(O)cc1)C(=O)O)OCc1ccccc1 (stereo not drawn) (Cbz-His-Tyr-OH; configuration not given here)
T/C [1]: 93 % of control | T/C [2]: 95 % of control | T/C [3]: 92 % of control

CCCc1cc2c(=O)c(C(=O)OC)c[nH]c2cc1N(CC)CC
T/C [1]: 96 % of control | T/C [2]: 100 % of control | T/C [3]: 104 % of control

Cn1c2ncccc2c(=O)c2c(O)cc3c(c21)C=CC(C)(C)O3
T/C (dose: 12.5 mg/kg/injection, schedule: Q01DX005 (ip), vehicle: Klucel (hydroxypropylcellulose) (HPC)): 100 % of control | T/C (dose: 25.0 mg/kg/injection, schedule: Q01DX005 (ip), vehicle: Klucel (hydroxypropylcellulose) (HPC)): 102 % of control | T/C [1]: 101 % of control and 93 % of control

[Cl][Pt][Cl].[NH-]CCC[N-]CCCC[N-]CCC[NH-]
T/C (dose: 1.56 mg/kg/injection, schedule: Q04DX003 (ip), vehicle: saline): 88 % of control | T/C (dose: 3.13 mg/kg/injection, schedule: Q04DX003 (ip), vehicle: saline): 98 % of control and 94 % of control | T/C (dose: 6.25 mg/kg/injection, schedule: Q04DX003 (ip), vehicle: saline): 107 % of control | T/C (dose: 12.5 mg/kg/injection, schedule: Q04DX003 (ip), vehicle: saline): 99 % of control and 119 % of control and 123 % of control | T/C (dose: 25.0 mg/kg/injection, schedule: Q04DX003 (ip), vehicle: saline): 102 % of control and 122 % of control

COC(=O)C1=COC(C)C2CN3CCc4c([nH]c5cc(OC)ccc45)C3CC12 (stereo not drawn)
T/C [4]: 91 % of control | T/C [5]: 109 % of control | T/C [6]: 109 % of control

COC(CCCNCCCC(OC)OC)OC
T/C (dose: 50.0 mg/kg/injection, schedule: Q01DX005 (ip), vehicle: saline): 102 % of control | T/C (dose: 100.0 mg/kg/injection, schedule: Q01DX005 (ip), vehicle: saline): 103 % of control | T/C (dose: 200.0 mg/kg/injection, schedule: Q01DX005 (ip), vehicle: saline): 103 % of control

CCCCCCCCSC(SCCCCCCCC)C(O)C(O)C(O)CO (stereo not drawn)
T/C [4]: 93 % of control | T/C [5]: 109 % of control

Oc1ccccc1-c1nc2c3ccccc3c3ccccc3c2[nH]1
T/C [4]: 113 % of control | T/C [5]: 111 % of control | T/C [6]: 113 % of control

Nc1n[nH]c(N)n1
T/C [7]: 109 % of control | T/C (dose: 800.0 mg/kg/injection, schedule: Q01DX009 (ip), vehicle: saline with Tween-80): 163 % of control

Nc1nc2ncnc(N)c2nc1-c1ccc(N(CCO)CCO)cc1
T/C (dose: 60.0 mg/kg/injection, schedule: Q01DX005 (ip), vehicle: Klucel (hydroxypropylcellulose) (HPC)): 91 % of control | T/C (dose: 120.0 mg/kg/injection, schedule: Q01DX005 (ip), vehicle: Klucel (hydroxypropylcellulose) (HPC)): 90 % of control | T/C (dose: 240.0 mg/kg/injection, schedule: Q01DX005 (ip), vehicle: Klucel (hydroxypropylcellulose) (HPC)): 91 % of control

CN(C)c1ccc2ncc(C(N)=O)c(N)c2c1
T/C (dose: 7.5 mg/kg/injection, schedule: Q01DX005 (ip), vehicle: Klucel (hydroxypropylcellulose) (HPC)): 91 % of control | T/C (dose: 15.0 mg/kg/injection, schedule: Q01DX005 (ip), vehicle: Klucel (hydroxypropylcellulose) (HPC)): 99 % of control | T/C (dose: 30.0 mg/kg/injection, schedule: Q01DX005 (ip), vehicle: Klucel (hydroxypropylcellulose) (HPC)): 97 % of control

COc1ccc(S(=O)(=O)N/N=C/C(=O)OCOC(=O)C(C)(C)C)cc1
T/C (dose: 5.0 mg/kg/injection, schedule: Q01DX005 (ip), vehicle: other): 111 % of control | T/C (dose: 5.0 mg/kg/injection, schedule: Q01DX005 (ip), vehicle: saline + Tween-80 + alcohol): 116 % of control | T/C (dose: 10.0 mg/kg/injection, schedule: Q01DX005 (ip), vehicle: saline + Tween-80 + alcohol): 111 % of control | T/C (dose: 12.5 mg/kg/injection, schedule: Q01DX005 (ip), vehicle: saline + Tween-80 + alcohol): 119 % of control | T/C (dose: 25.0 mg/kg/injection, schedule: Q01DX005 (ip), vehicle: saline + Tween-80 + alcohol): 111 % of control

Nc1[nH]c(=O)ncc1-c1ccc(Cl)cc1
T/C [8]: 97 % of control | T/C [9]: 96 % of control

N=C(Oc1ccccc1[N+](=O)[O-])c1ccccc1
T/C [10]: 90 % of control and 94 % of control | T/C [7]: 100 % of control and 95 % of control | T/C [11]: 102 % of control and 93 % of control | T/C (dose: 400.0 mg/kg/injection, schedule: Q01DX009 (ip), vehicle: saline with Tween-80): 88 % of control

CC(=O)C(Cl)C(=O)c1c(-c2ccccc2)[nH]c2ccccc12 (stereo not drawn)
T/C (dose: 100.0 mg/kg/injection, schedule: Q01DX001 (ip), vehicle: Klucel (hydroxypropylcellulose) (HPC)): 100 % of control | T/C (dose: 200.0 mg/kg/injection, schedule: Q01DX001 (ip), vehicle: Klucel (hydroxypropylcellulose) (HPC)): 102 % of control | T/C (dose: 400.0 mg/kg/injection, schedule: Q01DX001 (ip), vehicle: Klucel (hydroxypropylcellulose) (HPC)): 105 % of control

CC(C)CC(N)C(=O)NC(CC(C)C)P(=O)(O)O (stereo not drawn)
T/C [8]: 106 % of control | T/C [9]: 101 % of control | T/C (dose: 240.0 mg/kg/injection, schedule: Q01DX005 (ip), vehicle: saline with Tween-80): 104 % of control

[Br][Pb]([Br])([c]1ccccc1)[c]1ccccc1
T/C (dose: 12.5 mg/kg/injection, schedule: Q01DX009 (ip), vehicle: saline with Tween-80): 104 % of control and 112 % of control | T/C (dose: 25.0 mg/kg/injection, schedule: Q01DX009 (ip), vehicle: saline with Tween-80): 113 % of control (2×) and 114 % of control | T/C [10]: 107 % of control and 121 % of control | T/C [7]: 98 % of control

COC(=O)C(O)NC(N)=O (stereo not drawn)
T/C [10]: 98 % of control | T/C [7]: 94 % of control | T/C [11]: 89 % of control

CC(=O)OC1COC(Nc2[nH]c(=O)n(C)c(=O)c2C(=O)CCl)C(OC(C)=O)C1OC(C)=O (stereo not drawn)
T/C [4]: 104 % of control | T/C [5]: 96 % of control | T/C [6]: 93 % of control

CCOC(=O)/C=C/C(=O)NNC(=O)OC(C)(C)C
T/C (dose: 12.5 mg/kg/injection, schedule: Q01DX009 (ip), vehicle: other): 99 % of control | T/C (dose: 25.0 mg/kg/injection, schedule: Q01DX009 (ip), vehicle: other): 93 % of control | T/C (dose: 50.0 mg/kg/injection, schedule: Q01DX009 (ip), vehicle: other): 101 % of control | T/C (dose: 100.0 mg/kg/injection, schedule: Q01DX009 (ip), vehicle: other): 119 % of control | T/C (dose: 200.0 mg/kg/injection, schedule: Q01DX009 (ip), vehicle: other): 108 % of control

COc1cc(OC)cc(-c2n[se]c(-c3cc(OC)cc(OC)c3)n2)c1
T/C (dose: 1.56 mg/kg/injection, schedule: Q01DX009 (ip), vehicle: saline with Tween-80): 87 % of control | T/C [10]: 89 % of control
